Reference: patent publication US20240352022A1, “GROUP OF IMB-C5 SERIES COMPOUNDS HAVING ANTI-CORONAVIRUS ACTIVITY AND APPLICATION THEREOF” (priority 2021, published 2024)

What was measured:
HCoV-229E [1] = assay: mRNA level of HCoV-229E N protein in Huh7 cells (RT-qPCR); assay type: cell-based, Human coronavirus HCoV-229E; details: 24 h
HCoV-OC43 [2] = assay: time-of-addition experiment, HCoV-OC43 in C3A cells (immunofluorescence assay); assay type: cell-based, Human coronavirus HCoV-OC43; details: 50 μM
[3] = CCK-8 cytotoxicity assay in Huh7 cells; assay type: cell-based; details: human, Huh7 hepatocellular carcinoma cells, CCK-8, 48 hours, read-out: TC50
Method: (§1) In order to determine the possible cytotoxicity of IMB-C5 and IMB-85, the CCK-8 assay was first used to detect the effect of the two compounds at different concentrations on viability of different cells 48 hours after administration.

[4] = CCK-8 cytotoxicity assay in Huh7.5 cells; assay type: cell-based; details: human, Huh7.5 hepatocellular carcinoma cells, CCK-8, 48 hours, read-out: TC50
Method: as §1

HCoV-229E [5] = assay: mRNA level of HCoV-229E N protein in Huh7.5 cells (RT-qPCR); assay type: cell-based, Human coronavirus HCoV-229E; details: MOI=0.035, three concentrations, 24 h
in vitro [6] = details: human
HCoV-229E [7] = assay: anti-HCoV-229E activity in Huh7 cells by cytopathic effect (CPE) assay; assay type: cell-based, Human coronavirus HCoV-229E; details: Human coronavirus 229E, Huh-7, HCoV-229E 100 TCID50 in Huh7 cells, about 48 h
HCoV-229E [8] = assay: dsRNA production during replication of HCoV-229E in Huh7 cells (immunofluorescence assay); assay type: cell-based, Human coronavirus HCoV-229E
HCoV-OC43 [9] = assay: mRNA level of HCoV-OC43 N protein in C3A cells (RT-qPCR); assay type: cell-based, Human coronavirus HCoV-OC43; details: MOI=0.023, three concentrations, 24 h
HCoV-OC43 [10] = assay: N protein level of HCoV-OC43 in C3A cells (Western Blotting); assay type: cell-based, Human coronavirus HCoV-OC43; details: 24 h
Method: The viral N protein level was determined after 24 h.
The effect of IMB-C5 and IMB-85 on N protein level of coronavirus HCoV-OC43 was determined. C3A cells were infected at a viral load of MOI=0.037, and simultaneously administered with IMB-C5 (10 μM), IMB-85 (10 μM, 2 μ, 0.4 μM and 0.08 μM) and MNP (the positive control, 15 μM). After 24 h, the protein was extracted for Western blotting.

HCoV-229E [11] = assay: anti-HCoV-229E activity in Huh7.5 cells by cytopathic effect (CPE) assay; assay type: cell-based, Human coronavirus HCoV-229E; details: Human coronavirus 229E, HCoV-229E 100 TCID50 in Huh7.5 cells, about 48 h
in vitro [12] = details: human; remark: listed apart in the source
[13] = from reference [5]; cited from earlier work
in vitro [14] = details: African green monkey
HCoV-229E [15] = assay: N protein level of HCoV-229E in Huh7 cells (Western Blotting); assay type: cell-based, Human coronavirus HCoV-229E; details: 24 h
HCoV-229E [16] = assay: time-of-addition experiment, HCoV-229E in Huh7 cells (Western blotting and immunofluorescence); assay type: cell-based, Human coronavirus HCoV-229E; design: dose or concentration left out as unconfirmed
HCoV-229E [17] = assay: N protein level of HCoV-229E in Huh7.5 cells (Western Blotting); assay type: cell-based, Human coronavirus HCoV-229E; details: MOI=1, different concentrations, 24 h
[18] = MOI=17, IMB-85 3, 0.6 and 0.12 μM

With `COc1cccc(Cn2c(NCCO)nc3c2c(=O)n(C)c(=O)n3C)c1` [IMB-C5] the “mRNA level of HCoV-229E N protein” value (HCoV-229E [1]; MOI=0.035, three concentrations) was “decreased mRNA level of HCoV-229E N protein in both Huh7 and Huh7.5 cells in a dose-dependent manner”, the “antiviral effect, time of addition” value (HCoV-OC43 [2]; HCoV-OC43 MOI=0.28, administered 1 h to 4 h after infection) was “better antiviral effect” and the “antiviral effect, time of addition” value (HCoV-OC43 [2]; HCoV-OC43 MOI=0.28, administered 6 h or more after infection) was “greatly diminished antiviral effect”. For the same compound, the “antiviral effect, time of addition” value (HCoV-OC43 [2]; HCoV-OC43 MOI=0.28, administered at the time of virus infection) was “most significant inhibitory effect on virus”, the CC50 at 48 h [3] was over 200 µM and the CC50 at 48 h [4] was over 200 µM. The “mRNA level of HCoV-229E N protein” value (HCoV-229E [5]) was “decreased mRNA level of HCoV-229E N protein in both Huh7 and Huh7.5 cells in a dose-dependent manner”, the CC50 (in vitro [6]) was over 139 µM and the EC50 (HCoV-229E [7]) was 6.57 µM. For the same compound, the “dsRNA production during replication of HCoV-229E” value (HCoV-229E [8]; MOI=0.035, gradient concentrations, 24 h) was “had an inhibitory effect on dsRNA production”, the “dsRNA production during replication of HCoV-229E” value (HCoV-229E [8]; MOI=17, 24 h) was “inhibited dsRNA production” and the “mRNA level of HCoV-OC43 N protein” value (HCoV-OC43 [9]) was “decreased mRNA level of HCoV-OC43 N protein in C3A cells in a dose-dependent manner”. For the same compound, the “N protein level of HCoV-OC43” value (HCoV-OC43 [10]; MOI=0.023, three concentrations) was “inhibited the expression of the viral N protein in a dose-dependent manner”, the EC50 (HCoV-229E [11]) was 26.8 µM and the CC50 (in vitro [12]) was over 139 µM. The “effect on blood lipids and atherosclerotic plaque formation” value [13] was “good effect on lowering blood lipids and inhibiting atherosclerotic plaque formation” and the CC50 (in vitro [14]) was 493 µM.

In the case of `CCCCc1ccc(Cn2c(NCCO)nc3c2c(=O)n(C)c(=O)n3C)cc1` [IMB-85, 7-(4-butylbenzyl)-8-((2-hydroxyethyl)amino)-1,3-dimethyl-3,7-dihydro-1H-purine-2,6-dione], the “mRNA level of HCoV-229E N protein” value (HCoV-229E [1]; [18]) is reported as “decreased mRNA and protein level of HCoV-229E N protein in Huh7 cells in a dose-dependent manner”, the “N protein level of HCoV-229E” value (HCoV-229E [15]; MOI=1, 5 μM compound) is reported as “best activity in decreasing HCoV-229E N protein level” and the “N protein level of HCoV-229E” value (HCoV-229E [15]; MOI=1, different concentrations) is reported as “decreased the HCoV-229E N protein level in Huh7 cells in a dose-dependent manner”. The “protein level of HCoV-229E N protein” value (HCoV-229E [15]; [18]) was “decreased mRNA and protein level of HCoV-229E N protein in Huh7 cells in a dose-dependent manner”, the CC50 at 48 h [3] was over 200 µM and the CC50 at 48 h [4] was over 200 µM. The EC50 (HCoV-229E [7]) was 0.09 µM, the “antiviral effect (N protein and dsRNA level), time of addition” value (HCoV-229E [16]; IMB-85, HCoV-229E MOI=10, administered 6 h or more after infection) was “diminished antiviral effect” and the “antiviral effect (N protein and dsRNA level), time of addition” value (HCoV-229E [16]; IMB-85, HCoV-229E MOI=10, at the time of infection or within 1-5 h after infection) was “significant inhibitory effect on virus”. For the same compound, the “dsRNA production during replication of HCoV-229E” value (HCoV-229E [8]; MOI=17, 24 h) was “inhibited dsRNA production”, the “N protein level of HCoV-OC43” value (HCoV-OC43 [10]; MOI=0.037, IMB-85 10, 2, 0.4 and 0.08 μM) was “decreased the HCoV-OC43 N protein level in C3A cells in a dose-dependent manner” and the EC50 (HCoV-229E [11]) was 4.05 µM. The “N protein level of HCoV-229E” value (HCoV-229E [17]) was “decreased the HCoV-229E N protein level in Huh7.5 cells in a dose-dependent manner”.
